Holding throughout (assay): growth of human tumour cells (NCI), 48 h
In test [1] the test system is ACHN renal.
Test [2] deals with HCT-15 colon.
The subject of test [3] is HL-60(TB) leukemia.
Test [4] concerns MCF7 breast.
For test [5], the system named is NCI-H23 lung.
For test [6], the system named is OVCAR-4 ovarian.
Test [7] has as its system OVCAR-5 ovarian.
Test [8] relates to SF-539 CNS.
In test [9] the test system is SNB-19 CNS.
In test [10] the test system is TK-10 renal.

Data on eight compounds can be found in PubChem BioAssay (NCI).

Where “and” joins values, the source holds several entries; their conditions need not be identical. Equal entries are not always repeated.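 Interpolation was linear, between the two tested concentrations surrounding the appropriate level; five concentrations were tested over 48 hours in 96-well plates. At the GI50, growth is halved. At the TGI there is no net growth.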

For the compound `COc1ccc(/C=C/C(=O)Oc2cc(O)cc(O)c2)cc1`, the TGI was greater than 100 µM in test [1]; 65.9 µM in [2]; 55.5 µM in [3]; 71.7 µM in test [4]; greater than 100 µM in test [5]; greater than 100 µM in test [6]. For the same compound, the TGI in [7], in test [8], in test [9] and in [10] was greater than 100 µM in each case.
As to `C=C1C(=O)O[C@H]2[C@H]1CC/C(COC(=O)CSCC(=O)OC/C1=C/CC[C@@]3(C)O[C@H]3[C@H]3OC(=O)C(=C)[C@@H]3CC1)=C\CC[C@@]1(C)O[C@@H]21`, the GI50 in test [1] was 1.23 µM; in test [2], 1.25 µM; in test [3], 0.432 µM; in test [4], 0.48 µM; in [5] it was 2.26 µM; in test [6], 1.79 µM. Besides, the GI50 in [7] was 1.85 µM; in [8], 2.04 µM; in test [9], 3.11 µM; in test [10], 1.69 µM. Moreover, the TGI in test [1] is 2.48 µM; in test [2] it was 2.69 µM; in [3], 2.07 µM; in test [4], 2.33 µM; in [5] it was 7.07 µM; in test [6], 4.6 µM. Moreover, the TGI in test [7] came out at 3.86 µM; in test [8], 5.08 µM; in test [9], 13.9 µM; in test [10], 3.27 µM.
On to `O=C(N/N=C/c1ccccc1O)C(=O)Nc1ccc(F)cc1`, for which the GI50 was 3.02 µM in test [1]; 1.86 µM in test [2]; 2.02 µM in test [3]; 3.52 µM in test [4]; 7.31 µM in test [5]; 2.53 µM in [6]. For the same compound, the GI50 in test [7] is 6.69 µM; in test [8] it was 2.98 µM; in test [9] it was 4.91 µM; in test [10], 6.12 µM. Further, the TGI in [1] is greater than 100 µM; in [2] it was greater than 100 µM; in test [3], 8.75 µM; in test [4], greater than 100 µM; in test [5], greater than 100 µM; in test [6], greater than 100 µM. Moreover, the TGI in test [7] was greater than 100 µM; in [8], 18.5 µM; in test [9] it was greater than 100 µM; in [10], greater than 100 µM.
Turning to `COc1ccc2nc3cc(Cl)ccc3c(NCCCNCCC(C)O)c2c1` (stereo not given), the GI50 in test [1] is 0.192 µM; in [2], 0.735 µM; in [3], 1.65 µM; in test [4], 0.351 µM; in test [5], 0.36 µM; in test [6], 0.282 µM. For the same compound, the GI50 in test [7] was 0.331 µM; in test [8], 0.345 µM; in test [9] it was 0.423 µM; in test [10], 0.497 µM. Further, the TGI amounted to 1.68 µM in test [1]; 3.6 µM in test [2]; 3.92 µM in [3]; 1.72 µM in test [4]; 2.1 µM in test [5]; 1.04 µM in [6]. Further, the TGI is 2.46 µM in test [7], 1.49 µM in [8], 2.69 µM in test [9] and 2.94 µM in test [10].
For the compound `S=C1Nc2ccc(Cl)cc2C2(c3ccccc3)N3CCN=C3NN12` (stereo not given), the GI50 in test [1] is 55.9 µM; in test [2], 34 µM; in test [3], 22.7 µM; in test [4], 27.4 µM; in test [5], greater than 100 µM; in test [6] it was 26.1 µM. Moreover, the GI50 was 82.7 µM in [7], 36.7 µM in [8], 36.9 µM in [9] and 35.1 µM in test [10]. The TGI in test [1] was greater than 100 µM; in [2], greater than 100 µM; in test [3], 53 µM; in test [4], greater than 100 µM; in test [5], greater than 100 µM; in test [6], greater than 100 µM. The TGI in [7], in test [8], in test [9] and in test [10] was greater than 100 µM throughout.
`Cc1c2c[n+](C(C)C)ccc2c(C)c2c1[nH]c1ccccc12`: the GI50 in test [1] is 22.6 µM; in test [2], 52.1 µM; in [3] it was 3.13 µM; in test [4] it was 1.85 µM; in [5], 1.75 µM; in [6], 2.61 µM. In addition, the GI50 in [7] is 5.95 µM; in test [8], 1.62 µM; in test [9], 0.416 µM; in test [10] it was 21.1 µM. Further, the TGI in [1] is greater than 100 µM; in test [2], greater than 100 µM; in [3], 19.2 µM; in test [4] it was 14.8 µM; in test [5], 15.7 µM; in test [6], 15.4 µM. In addition, the TGI was greater than 100 µM in test [7], 16.4 µM in test [8], 14.7 µM in [9] and greater than 100 µM in [10].
Consider `C=CCC1(O)c2cccc(NCCO)c2C(=O)c2c(NCCO)cccc21`, for which the GI50 in test [1], in test [2], in test [3], in test [4], in test [5] and in test [6] was greater than 100 µM in each case. The GI50 in test [7], in test [8], in test [9] and in [10] was greater than 100 µM in each case. The TGI in test [1], in [2], in test [3], in [4], in test [5] and in [6] was greater than 100 µM throughout. Besides, the TGI in test [7], in test [8], in test [9] and in [10] was greater than 100 µM throughout.
Turning to `Cc1cc(Nc2ncnc3ccc(NC4=NC(C)(C)CO4)cc23)ccc1Oc1ccn2ncnc2c1`, the GI50 was 4.48 µM and 9.46 µM in [1]; 8.92 µM and > 10 µM in test [2]; 21 µM and > 10 µM in [3]; 13.7 µM and > 10 µM in [4]; 17 µM and > 10 µM in test [5]; 15.1 µM and > 10 µM in test [6]. The GI50 in test [7] is 17.1 µM and > 10 µM; in test [8], 15.6 µM and > 10 µM; in test [9], 21.9 µM and > 10 µM; in [10], 3.84 µM and 2.76 µM. In addition, the TGI in test [1] is greater than 100 µM; in test [2], greater than 65.9 µM; in [3], 46.1 µM and > 10 µM; in test [4], 31.5 µM and > 10 µM; in test [5], 41.7 µM and > 10 µM; in [6], 99 µM and > 10 µM. Also, the TGI in test [7] was 62.9 µM and > 10 µM; in [8], 31.2 µM and > 10 µM; in test [9] it was greater than 100 µM; in test [10] it was 25.1 µM and > 10 µM.
